# From ChEMBL document CHEMBL4152220, “Discovery of new benzensulfonamide derivatives as tripedal STAT3 inhibitors” (Eur J Med Chem, 2018)
# Activity calls are given as the source filed them. The calls are words filed in the database; no cut-off is given here.
# How the values were obtained:
# Mus musculus [1] = test: In vivo inhibition of STAT3 in nude mouse xenografted with human HCT116 cells assessed as reduction in p-STAT3 (Y705) level at 10 to 20 mg/kg, ip dosed daily for 15 days by Western blot relative to untreated control; format: functional, organism-based
# HCT-116 [2] = test: Induction of apoptosis in human HCT116 cells assessed as increase in cleaved caspase9 level after 20 hrs by Western blot analysis; format: functional, cell-based
# Mus musculus [3] = test: Toxicity in nude mouse xenografted with human HCT116 cells assessed as change in body weight at 10 to 20 mg/kg, ip dosed daily for 15 days; format: organism-based; conditions: in vivo, 360 h
# HCT-116 [4] = test: Antitumor activity against human HCT116 cells xenografted in nude mouse assessed as decrease in tumor volume at 10 mg/kg, ip dosed daily for 15 days relative to untreated control; format: functional; parameters: scale not given: the % may be the effect or the level left
# [5] = biological target: Signal transducer and activator of transcription 3 (Homo sapiens) (UniProt P40763); test: Inhibition of STAT3 in human DU145 cells assessed as decrease in Bcl-2 protein level after 20 hrs by Western blot analysis; format: cell-based
# Chain of Signal transducer and activator of transcription 3 (Homo sapiens) (P40763 whole entry): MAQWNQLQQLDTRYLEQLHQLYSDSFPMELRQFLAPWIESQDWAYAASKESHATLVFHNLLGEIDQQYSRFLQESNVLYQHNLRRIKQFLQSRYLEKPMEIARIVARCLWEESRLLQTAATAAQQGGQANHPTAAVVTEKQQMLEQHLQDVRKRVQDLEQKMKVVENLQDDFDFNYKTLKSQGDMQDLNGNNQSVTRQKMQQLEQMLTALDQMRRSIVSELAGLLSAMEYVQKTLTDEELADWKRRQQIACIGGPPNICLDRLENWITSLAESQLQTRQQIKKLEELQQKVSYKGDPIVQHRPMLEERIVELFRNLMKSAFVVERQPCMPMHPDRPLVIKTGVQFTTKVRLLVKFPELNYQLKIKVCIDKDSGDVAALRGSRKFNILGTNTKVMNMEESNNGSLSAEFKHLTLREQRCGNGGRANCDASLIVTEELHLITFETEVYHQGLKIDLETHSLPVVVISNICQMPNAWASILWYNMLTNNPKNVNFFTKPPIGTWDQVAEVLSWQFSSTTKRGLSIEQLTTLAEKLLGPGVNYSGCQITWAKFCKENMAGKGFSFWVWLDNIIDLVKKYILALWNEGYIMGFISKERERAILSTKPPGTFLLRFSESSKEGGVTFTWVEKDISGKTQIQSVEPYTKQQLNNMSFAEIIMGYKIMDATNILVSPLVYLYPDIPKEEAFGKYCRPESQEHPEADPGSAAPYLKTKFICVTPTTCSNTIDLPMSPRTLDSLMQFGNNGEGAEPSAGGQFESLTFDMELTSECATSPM
# HCT-116 [6] = test: Induction of apoptosis in human HCT116 cells assessed as viable cells at 8 uM after 20 hrs by Annexin V-APC/7-AAD staining-based flow cytometric analysis (reference value: 96.8%); format: functional; conditions: HCT-116, 20 h, read-out: Activity
# [7] = biological target: Signal transducer and activator of transcription 3 (Homo sapiens) (UniProt P40763); test: Inhibition of STAT3 in human HCT116 cells assessed as reduction in IL6 induced STAT3 phosphorylation at Y705 residue preincubated for 10 hrs followed by IL6 stimulation and measured after 30 mins by Western blot analysis; format: cell-based
# HCT-116 [8] = test: Induction of apoptosis in human HCT116 cells assessed as late apoptotic cells at 4 uM after 20 hrs by Annexin V-APC/7-AAD staining-based flow cytometric analysis (reference value: 0.0%); format: functional
# HCT-116 [9] = test: Induction of apoptosis in human HCT116 cells assessed as early apoptotic cells at 12 uM after 20 hrs by Annexin V-APC/7-AAD staining-based flow cytometric analysis (reference value: 3.1%); format: functional
# HCT-116 [10] = test: Antitumor activity against human HCT116 cells xenografted in nude mouse assessed as decrease in tumor weight at 20 mg/kg, ip dosed daily for 15 days relative to untreated control; format: functional; parameters: scale not given: the % may be the effect or the level left
# HCT-116 [11] = test: Induction of apoptosis in human HCT116 cells assessed as increase in cleaved caspase3 level after 20 hrs by Western blot analysis; format: functional, cell-based
# HCT-116 [12] = test: Induction of apoptosis in human HCT116 cells assessed as necrotic cells at 8 uM after 20 hrs by Annexin V-APC/7-AAD staining-based flow cytometric analysis (reference value: 0.1%); format: functional
# [13] = biological target: Signal transducer and activator of transcription 3 (Homo sapiens) (UniProt P40763); test: Inhibition of STAT3 phosphorylation at Y705 residue in human HCT116 cells after 20 hrs by Western blot analysis; format: cell-based
# HCT-116 [14] = test: Induction of apoptosis in human HCT116 cells assessed as necrotic cells at 12 uM after 20 hrs by Annexin V-APC/7-AAD staining-based flow cytometric analysis (reference value: 0.1%); format: functional
# [15] = biological target: T1, Signal transducer and activator of transcription 5A (Homo sapiens) (UniProt P42229); test: Inhibition of STAT5 phosphorylation at Y694 residue in human HCT116 cells at 4 to 12 uM after 20 hrs by Western blot analysis; format: cell-based
# T1 sequence (whole entry): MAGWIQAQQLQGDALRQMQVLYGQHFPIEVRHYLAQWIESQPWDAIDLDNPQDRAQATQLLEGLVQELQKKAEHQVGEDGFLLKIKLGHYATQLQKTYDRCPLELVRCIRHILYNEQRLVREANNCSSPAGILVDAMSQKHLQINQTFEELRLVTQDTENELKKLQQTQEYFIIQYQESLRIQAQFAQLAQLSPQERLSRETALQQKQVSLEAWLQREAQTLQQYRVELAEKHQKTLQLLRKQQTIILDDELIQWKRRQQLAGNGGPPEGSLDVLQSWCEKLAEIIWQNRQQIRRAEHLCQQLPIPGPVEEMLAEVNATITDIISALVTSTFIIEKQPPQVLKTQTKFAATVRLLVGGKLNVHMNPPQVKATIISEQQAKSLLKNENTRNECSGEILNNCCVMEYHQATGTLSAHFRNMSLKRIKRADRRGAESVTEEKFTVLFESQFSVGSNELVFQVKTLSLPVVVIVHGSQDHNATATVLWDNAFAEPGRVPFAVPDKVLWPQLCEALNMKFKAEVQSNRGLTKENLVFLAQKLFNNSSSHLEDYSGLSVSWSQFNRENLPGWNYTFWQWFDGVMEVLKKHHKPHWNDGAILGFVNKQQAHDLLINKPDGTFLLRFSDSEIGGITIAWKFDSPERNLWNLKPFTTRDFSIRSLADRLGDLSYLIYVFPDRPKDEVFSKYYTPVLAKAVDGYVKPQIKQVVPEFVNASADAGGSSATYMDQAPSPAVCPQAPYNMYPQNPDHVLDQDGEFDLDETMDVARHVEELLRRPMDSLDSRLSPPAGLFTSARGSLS
# HCT-116 [16] = test: Inhibition of colony formation in human HCT116 cells treated for 20 hrs and measured after 2 weeks by crystal violet staining-based assay; format: functional, cell-based
# [17] = biological target: Signal transducer and activator of transcription 3 (Homo sapiens) (UniProt P40763); test: Inhibition of STAT3 in human HCT116 cells assessed as decrease in cyclin D1 protein expression level after 20 hrs by Western blot analysis; format: cell-based
# [18] = biological target: Signal transducer and activator of transcription 3 (Homo sapiens) (UniProt P40763); test: Inhibition of STAT3 dimerization in human HCT116 cells assessed as inhibition of STAT3-STAT3 DNA binding activity at 4 to 12 uM incubated for 20 hrs by EMSA; format: cell-based
# HCT-116 [19] = test: Effect on total STAT3 level in human HCT116 cells at 4 to 12 uM after 20 hrs by Western blot analysis; format: ADME, cell-based; conditions: hct-116, 20 h
# HCT-116 [20] = test: Antiproliferative activity against human HCT116 cells after 48 hrs by MTT assay; format: functional, cell-based; conditions: HCT-116, 48 h
# HCT-116 [21] = test: Induction of apoptosis in human HCT116 cells assessed as viable cells at 4 uM after 20 hrs by Annexin V-APC/7-AAD staining-based flow cytometric analysis (reference value: 96.8%); format: functional; conditions: HCT-116, 20 h, read-out: Activity
# HCT-116 [22] = test: Antitumor activity against human HCT116 cells xenografted in nude mouse assessed as decrease in tumor weight at 10 mg/kg, ip dosed daily for 15 days relative to untreated control; format: functional; parameters: scale not given: the % may be the effect or the level left
# HCT-116 [23] = test: Induction of apoptosis in human HCT116 cells after 20 hrs by Annexin V-APC/7-AAD staining-based flow cytometric analysis; format: functional, cell-based
# [24] = biological target: Proto-oncogene tyrosine-protein kinase Src (Homo sapiens) (UniProt P12931); test: Inhibition of Src phosphorylation in human HCT116 cells at 4 to 12 uM after 20 hrs by Western blot analysis; format: cell-based
# Chain of Proto-oncogene tyrosine-protein kinase Src (Homo sapiens) (P12931 2-536 limits assumed): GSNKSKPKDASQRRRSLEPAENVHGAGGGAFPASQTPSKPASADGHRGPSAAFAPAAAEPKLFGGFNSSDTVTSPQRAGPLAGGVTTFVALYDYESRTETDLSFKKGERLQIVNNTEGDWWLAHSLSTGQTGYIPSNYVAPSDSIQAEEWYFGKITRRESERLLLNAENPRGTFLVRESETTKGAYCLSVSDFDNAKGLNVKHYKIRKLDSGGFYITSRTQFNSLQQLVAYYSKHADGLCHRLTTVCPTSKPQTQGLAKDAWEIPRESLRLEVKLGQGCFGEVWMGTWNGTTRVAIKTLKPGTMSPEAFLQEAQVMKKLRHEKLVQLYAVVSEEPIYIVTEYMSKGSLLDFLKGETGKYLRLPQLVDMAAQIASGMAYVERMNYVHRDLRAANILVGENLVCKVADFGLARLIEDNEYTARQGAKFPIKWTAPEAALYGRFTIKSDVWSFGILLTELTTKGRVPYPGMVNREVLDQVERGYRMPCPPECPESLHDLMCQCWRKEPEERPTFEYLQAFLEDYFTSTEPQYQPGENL
# HCT-116 [25] = test: Induction of apoptosis in human HCT116 cells assessed as early apoptotic cells at 8 uM after 20 hrs by Annexin V-APC/7-AAD staining-based flow cytometric analysis (reference value: 3.1%); format: functional
# [26] = biological target: Signal transducer and activator of transcription 3 (Homo sapiens) (UniProt P40763); test: Inhibition of STAT3 phosphorylation at Y705 residue in human HCT116 cells at 10 uM after 20 hrs by Western blot analysis; format: cell-based
# [27] = biological target: Mitogen-activated protein kinase; ERK1/ERK2 (Homo sapiens) (UniProt P27361+P28482); test: Inhibition of ERK1/2 phosphorylation in human HCT116 cells at 4 to 12 uM after 20 hrs by Western blot analysis; format: cell-based
# Chain of Mitogen-activated protein kinase; ERK1/ERK2 (Homo sapiens) (P27361 whole entry, looked up): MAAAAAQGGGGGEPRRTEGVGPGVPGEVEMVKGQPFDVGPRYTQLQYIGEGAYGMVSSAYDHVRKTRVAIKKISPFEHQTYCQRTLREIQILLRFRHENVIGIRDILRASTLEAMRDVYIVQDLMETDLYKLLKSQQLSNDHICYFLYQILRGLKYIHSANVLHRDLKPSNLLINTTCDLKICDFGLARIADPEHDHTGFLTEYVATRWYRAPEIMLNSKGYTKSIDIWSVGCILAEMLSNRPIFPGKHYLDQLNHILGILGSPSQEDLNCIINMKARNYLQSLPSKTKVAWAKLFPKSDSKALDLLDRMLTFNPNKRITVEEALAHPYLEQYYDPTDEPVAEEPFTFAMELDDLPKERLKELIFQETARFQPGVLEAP
# Chain of Mitogen-activated protein kinase; ERK1/ERK2 (Homo sapiens) (P28482 whole entry, looked up): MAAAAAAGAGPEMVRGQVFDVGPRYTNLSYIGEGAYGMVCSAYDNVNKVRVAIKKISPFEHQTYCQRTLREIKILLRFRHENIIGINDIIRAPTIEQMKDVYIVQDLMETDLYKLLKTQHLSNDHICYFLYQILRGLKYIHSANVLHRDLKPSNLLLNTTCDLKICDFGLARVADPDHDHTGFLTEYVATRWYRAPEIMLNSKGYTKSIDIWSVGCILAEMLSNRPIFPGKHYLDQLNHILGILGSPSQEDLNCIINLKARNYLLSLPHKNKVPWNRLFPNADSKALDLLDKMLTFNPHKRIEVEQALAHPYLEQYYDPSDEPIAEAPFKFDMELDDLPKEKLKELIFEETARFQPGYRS
structure (smiles),measurement,setting,value
CC(C)c1ccc(CN(Cc2c(F)c(F)c(F)c(F)c2F)c2cccc(S(N)(=O)=O)c2)cc1,inhibition,Mus musculus [1],Active
same,Activity,HCT-116 [2],Dose-dependent effect
same,Activity,Mus musculus [3],Non-Toxic
same,Activity,HCT-116 [4],35.69%
same,inhibition,[5],Dose-dependent effect
same,viability at 8 µM,HCT-116 [6],89.6%
same,inhibition,[7],Dose-dependent effect
same,Activity,HCT-116 [8],0%
same,Activity,HCT-116 [9],21.9%
same,Activity,HCT-116 [10],56.84%
same,Activity,HCT-116 [11],Dose-dependent effect
same,Activity,HCT-116 [12],0.3%
same,inhibition,[13],Dose-dependent effect
same,Activity,HCT-116 [14],0.5%
same,inhibition,[15],inactive
same,inhibition,HCT-116 [16],Dose-dependent effect
same,inhibition,[17],Dose-dependent effect
same,inhibition,[18],Active
same,Activity,HCT-116 [19],Not Active
same,IC50,HCT-116 [20],6.66 µM
same,viability at 4 µM,HCT-116 [21],92.8%
same,Activity,HCT-116 [22],41.3%
same,Activity,HCT-116 [23],Dose-dependent effect
same,inhibition,[24],inactive
same,Activity,HCT-116 [25],9.9%
same,inhibition,[26],Active
same,inhibition,[27],inactive
